According to BindingDB's records for doi:10.1021/acsmedchemlett.0c00107 (Usona Institute, 2020):

target: T1, Estrogen receptor (Homo sapiens, UniProt P03372); assay: Induction of ERalpha protein degradation in human MCF7 cells assessed as reduction in ERalpha protein levels incubated for 24 hrs by In-cell western assay; settings: read-out: IC50 (the source's name)
T1 sequence (P03372 whole entry): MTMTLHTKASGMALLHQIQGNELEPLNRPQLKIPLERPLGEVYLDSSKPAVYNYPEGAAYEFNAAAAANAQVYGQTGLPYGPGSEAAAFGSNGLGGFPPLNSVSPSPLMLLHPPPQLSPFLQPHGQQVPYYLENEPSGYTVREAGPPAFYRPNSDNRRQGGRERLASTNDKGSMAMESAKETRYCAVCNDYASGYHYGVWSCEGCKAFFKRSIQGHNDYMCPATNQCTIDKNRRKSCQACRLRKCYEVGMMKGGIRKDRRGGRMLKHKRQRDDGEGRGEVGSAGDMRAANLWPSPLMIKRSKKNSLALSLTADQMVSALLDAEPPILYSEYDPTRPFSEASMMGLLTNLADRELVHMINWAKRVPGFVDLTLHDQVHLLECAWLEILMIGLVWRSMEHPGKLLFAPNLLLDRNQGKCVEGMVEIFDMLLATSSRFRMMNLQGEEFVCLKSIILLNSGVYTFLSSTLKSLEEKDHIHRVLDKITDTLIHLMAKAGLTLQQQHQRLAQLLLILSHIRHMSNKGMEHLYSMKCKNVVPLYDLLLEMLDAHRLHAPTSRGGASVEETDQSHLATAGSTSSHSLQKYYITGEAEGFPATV

| DC50 [nM] | SMILES |
| --- | --- |
| 0.5 | O=C(NCCCCOc1ccc(C(=C2C3CC4CC(C3)CC2C4)c2ccc(O)cc2)cc1)[C@H]1C[C@@H]2C=C[C@H]1C2 |
| 0.5 | CC(C)(C)OC(=O)N[C@@H](Cc1c[nH]c2ccccc12)C(=O)NCCCCOc1ccc(C(=C2C3CC4CC(C3)CC2C4)c2ccc(O)cc2)cc1 |
| 2 | O=C(NCCCCOc1ccc(C(=C2C3CC4CC(C3)CC2C4)c2ccc(O)cc2)cc1)[C@H]1CC[C@H](C(F)(F)F)CC1 |
